# Reference: patent publication US20230085307A1, “PYRIDAZINONE COMPOUND AND HERBICIDE” (NISSAN CHEMICAL CORPORATION, priority 2019, published 2023)
# Experiments:
# southern crabgrass [1] = experiment: Test Example 4: herbicidal effect by soil treatment (Table 19, symbol F); format: in vivo, southern crabgrass (Digitaria ciliaris); conditions: amount of applied herbicide 320 g/ha
# In short: (§1)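 Applied as a water-diluted emulsion, the compound was sprayed onto soil covering newly sown seeds. Evaluation came three weeks after application, in a greenhouse held at 25° C. to 30° C.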
# wild oat [2] = experiment: Test Example 4: herbicidal effect by soil treatment (Table 19, symbol I); format: in vivo, wild oat (Avena fatua); conditions: amount of applied herbicide 320 g/ha
# In short: as §1
# persian speedwell [3] = experiment: Test Example 5: herbicidal effect by foliage application, plastic box (Table 20, symbol R); format: in vivo, Persian speedwell (Veronica persica); conditions: foliage application, 320 g/ha, evaluated three weeks after application
# In short: (§2)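 Sow seeds spot-wise in sterilized diluvial soil; cover with ~1.5 cm soil. Grow 14 days in greenhouse, 25° C. to 30° C. Spray foliage with emulsion diluted to predetermined amount. Rate effect after 3 weeks.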
# barnyard grass [4] = experiment: Test Example 5: herbicidal effect by foliage application, plastic box (Table 20, symbol H); format: in vivo, barnyard grass (Echinochloa crus-galli); conditions: foliage application, 320 g/ha, evaluated three weeks after application
# In short: as §2
# windgrass [5] = experiment: Test Example 4: herbicidal effect by soil treatment (Table 19, symbol L); format: in vivo, windgrass (Apera spica-venti); conditions: amount of applied herbicide 320 g/ha
# In short: as §1
# blackgrass [6] = experiment: Test Example 5: herbicidal effect by foliage application, plastic box (Table 20, symbol J); format: in vivo, blackgrass (Alopecurus myosuroides); conditions: foliage application, 320 g/ha, evaluated three weeks after application
# In short: as §2
# lambsquarters [7] = experiment: Test Example 4: herbicidal effect by soil treatment (Table 19, symbol O); format: in vivo, lambsquarters (Chenopodium album); conditions: amount of applied herbicide 320 g/ha
# In short: as §1
# velvetleaf [8] = experiment: Test Example 4: herbicidal effect by soil treatment (Table 19, symbol M); format: in vivo, velvetleaf (Abutilon theophrasti); conditions: amount of applied herbicide 320 g/ha
# In short: as §1
# lambsquarters [9] = experiment: Test Example 5: herbicidal effect by foliage application, plastic box (Table 20, symbol O); format: in vivo, lambsquarters (Chenopodium album); conditions: foliage application, 320 g/ha, evaluated three weeks after application
# In short: as §2
# rice flat sedge = experiment: Test Example 3: herbicidal effect by foliage application, Wagner pot (Table 18, symbol E); format: in vivo, rice flat sedge (Cyperus iria); conditions: amount of applied herbicide 320 g/ha
# In short: (§3)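 Plants were sown in alluvial soil held under 0.1–0.5 cm standing water and grown 14 days in a greenhouse at 25–30 °C. An emulsifiable formulation, water-diluted to the set dose, was then sprayed onto the foliage, and effects were scored three weeks later using previously defined criteria.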
# blackgrass [10] = experiment: Test Example 4: herbicidal effect by soil treatment (Table 19, symbol J); format: in vivo, blackgrass (Alopecurus myosuroides); conditions: amount of applied herbicide 320 g/ha
# In short: as §1
# green foxtail [11] = experiment: Test Example 5: herbicidal effect by foliage application, plastic box (Table 20, symbol G); format: in vivo, green foxtail (Setaria viridis); conditions: foliage application, 320 g/ha, evaluated three weeks after application
# In short: as §2
# redroot pigweed [12] = experiment: Test Example 4: herbicidal effect by soil treatment (Table 19, symbol N); format: in vivo, redroot pigweed (Amaranthus retroflexus); conditions: amount of applied herbicide 320 g/ha
# In short: as §1
# Italian ryegrass [13] = experiment: Test Example 5: herbicidal effect by foliage application, plastic box (Table 20, symbol K); format: in vivo, Italian ryegrass (Lolium multiflorum); conditions: foliage application, 320 g/ha, evaluated three weeks after application
# In short: as §2
# barnyard grass [14] = experiment: Test Example 4: herbicidal effect by soil treatment (Table 19, symbol H); format: in vivo, barnyard grass (Echinochloa crus-galli); conditions: amount of applied herbicide 320 g/ha
# In short: as §1
# Italian ryegrass [15] = experiment: Test Example 4: herbicidal effect by soil treatment (Table 19, symbol K); format: in vivo, Italian ryegrass (Lolium multiflorum); conditions: amount of applied herbicide 320 g/ha
# In short: as §1
# chickweed [16] = experiment: Test Example 5: herbicidal effect by foliage application, plastic box (Table 20, symbol P); format: in vivo, common chickweed (Stellaria media); conditions: foliage application, 320 g/ha, evaluated three weeks after application
# In short: as §2
# false cleavers = experiment: Test Example 4: herbicidal effect by soil treatment (Table 19, symbol Q); format: in vivo, false cleavers (Galium spurium); conditions: amount of applied herbicide 320 g/ha
# In short: as §1
# green foxtail [17] = experiment: Test Example 4: herbicidal effect by soil treatment (Table 19, symbol G); format: in vivo, green foxtail (Setaria viridis); conditions: amount of applied herbicide 320 g/ha
# In short: as §1
# chickweed [18] = experiment: Test Example 4: herbicidal effect by soil treatment (Table 19, symbol P); format: in vivo, common chickweed (Stellaria media); conditions: amount of applied herbicide 320 g/ha
# In short: as §1
# southern crabgrass [19] = experiment: Test Example 5: herbicidal effect by foliage application, plastic box (Table 20, symbol F); format: in vivo, southern crabgrass (Digitaria ciliaris); conditions: foliage application, 320 g/ha, evaluated three weeks after application
# In short: as §2
# redroot pigweed [20] = experiment: Test Example 5: herbicidal effect by foliage application, plastic box (Table 20, symbol N); format: in vivo, redroot pigweed (Amaranthus retroflexus); conditions: foliage application, 320 g/ha, evaluated three weeks after application
# In short: as §2
# windgrass [21] = experiment: Test Example 5: herbicidal effect by foliage application, plastic box (Table 20, symbol L); format: in vivo, windgrass (Apera spica-venti); conditions: foliage application, 320 g/ha, evaluated three weeks after application
# In short: as §2
# velvetleaf [22] = experiment: Test Example 5: herbicidal effect by foliage application, plastic box (Table 20, symbol M); format: in vivo, velvetleaf (Abutilon theophrasti); conditions: foliage application, 320 g/ha, evaluated three weeks after application
# In short: as §2
# persian speedwell [23] = experiment: Test Example 4: herbicidal effect by soil treatment (Table 19, symbol R); format: in vivo, Persian speedwell (Veronica persica); conditions: amount of applied herbicide 320 g/ha
# In short: as §1
# Chinese sprangletop = experiment: Test Example 3: herbicidal effect by foliage application, Wagner pot (Table 18, symbol D); format: in vivo, chinese sprangletop (Leptochloa chinensis); conditions: amount of applied herbicide 320 g/ha
# In short: as §3
# wild oat [24] = experiment: Test Example 5: herbicidal effect by foliage application, plastic box (Table 20, symbol I); format: in vivo, wild oat (Avena fatua); conditions: foliage application, 320 g/ha, evaluated three weeks after application
# In short: as §2
# barnyard grass [25] = experiment: Test Example 3: herbicidal effect by foliage application, Wagner pot (Table 18, symbol H); format: in vivo, barnyard grass (Echinochloa crus-galli); conditions: amount of applied herbicide 320 g/ha
# In short: as §3
# late watergrass = experiment: Test Example 1: herbicidal activity, application before weed generation under submerged conditions (Table 16, symbol A); format: in vivo, late watergrass (Echinochloa oryzicola); conditions: 320 g/ha applied herbicide
# In short: (§4)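 Submerged Wagner pots (alluvial soil, 4 cm water) sown with weed seeds and planted with 2.5-leaf rice seedlings; emulsifiable concentrate diluted in water applied to water surface on sowing day. Held in greenhouse at 25-30 °C; injury scored 0-5 by herbicidal rate after three weeks.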
# oval-leafed pondweed = experiment: Test Example 1: herbicidal activity, application before weed generation under submerged conditions (Table 16, symbol C); format: in vivo, oval-leafed pondweed (Monochoria vaginalis); conditions: 320 g/ha applied herbicide
# In short: as §4
# Japanese bulrush = experiment: Test Example 1: herbicidal activity, application before weed generation under submerged conditions (Table 16, symbol B); format: in vivo, Japanese bulrush (Schoenoplectus juncoides); conditions: 320 g/ha applied herbicide
# In short: as §4
compound,measurement,setting,value
CCCCOc1cccc(-c2sc3ccc(F)cc3c2-c2c(O)c(C)nn(C)c2=O)c1 [2-219],"F: southern crabgrass, herbicidal effect rating",southern crabgrass [1],4 (Herbicidal rate of 70% or more and less than 90%)
same,"I: wild oat, herbicidal effect rating",wild oat [2],0 (Herbicidal rate of 5% or less (almost no effect))
same,herbicidal effect on R: persian speedwell (criteria 0-5),persian speedwell [3],5 (Herbicidal rate of 90% or more (almost completely withered))
same,herbicidal effect on H: barnyard grass (criteria 0-5),barnyard grass [4],4 (Herbicidal rate of 70% or more and less than 90%)
same,"L: windgrass, herbicidal effect rating",windgrass [5],0 (Herbicidal rate of 5% or less (almost no effect))
same,herbicidal effect on J: blackgrass (criteria 0-5),blackgrass [6],0 (Herbicidal rate of 5% or less (almost no effect))
same,"O: lambsquarters, herbicidal effect rating",lambsquarters [7],1 (Herbicidal rate of 5% or more and less than 20%)
same,"M: velvetleaf, herbicidal effect rating",velvetleaf [8],1 (Herbicidal rate of 5% or more and less than 20%)
same,herbicidal effect on O: lambsquarters (criteria 0-5),lambsquarters [9],3 (Herbicidal rate of 40% or more and less than 70%)
same,herbicidal effect on E: rice flat sedge,rice flat sedge,3 (Herbicidal rate of 40% or more and less than 70%)
same,"J: blackgrass, herbicidal effect rating",blackgrass [10],0 (Herbicidal rate of 5% or less (almost no effect))
same,herbicidal effect on G: green foxtail (criteria 0-5),green foxtail [11],5 (Herbicidal rate of 90% or more (almost completely withered))
same,"N: redroot pigweed, herbicidal effect rating",redroot pigweed [12],3 (Herbicidal rate of 40% or more and less than 70%)
same,herbicidal effect on K: Italian ryegrass (criteria 0-5),Italian ryegrass [13],0 (Herbicidal rate of 5% or less (almost no effect))
same,"H: barnyard grass, herbicidal effect rating",barnyard grass [14],5 (Herbicidal rate of 90% or more (almost completely withered))
same,"K: Italian ryegrass, herbicidal effect rating",Italian ryegrass [15],0 (Herbicidal rate of 5% or less (almost no effect))
same,herbicidal effect on P: chickweed (criteria 0-5),chickweed [16],5 (Herbicidal rate of 90% or more (almost completely withered))
same,"Q: false cleavers, herbicidal effect rating",false cleavers,0 (Herbicidal rate of 5% or less (almost no effect))
same,"G: green foxtail, herbicidal effect rating",green foxtail [17],4 (Herbicidal rate of 70% or more and less than 90%)
same,"P: chickweed, herbicidal effect rating",chickweed [18],0 (Herbicidal rate of 5% or less (almost no effect))
same,herbicidal effect on F: southern crabgrass (criteria 0-5),southern crabgrass [19],4 (Herbicidal rate of 70% or more and less than 90%)
same,herbicidal effect on N: redroot pigweed (criteria 0-5),redroot pigweed [20],5 (Herbicidal rate of 90% or more (almost completely withered))
same,herbicidal effect on L: windgrass (criteria 0-5),windgrass [21],0 (Herbicidal rate of 5% or less (almost no effect))
same,herbicidal effect on M: velvetleaf (criteria 0-5),velvetleaf [22],2 (Herbicidal rate of 20% or more and less than 40%)
same,"R: persian speedwell, herbicidal effect rating",persian speedwell [23],3 (Herbicidal rate of 40% or more and less than 70%)
same,herbicidal effect on D: Chinese sprangletop,Chinese sprangletop,3 (Herbicidal rate of 40% or more and less than 70%)
same,herbicidal effect on I: wild oat (criteria 0-5),wild oat [24],0 (Herbicidal rate of 5% or less (almost no effect))
same,herbicidal effect on H: barnyard grass,barnyard grass [25],5 (Herbicidal rate of 90% or more (almost completely withered))
same,Herbicidal effect on A: late watergrass (grade 0-5),late watergrass,3 (Herbicidal rate of 40% or more and less than 70%)
same,Herbicidal effect on C: oval-leafed pondweed (grade 0-5),oval-leafed pondweed,0 (Herbicidal rate of 5% or less (almost no effect))
same,Herbicidal effect on B: Japanese bulrush (grade 0-5),Japanese bulrush,0 (Herbicidal rate of 5% or less (almost no effect))
